Measured values: the supplement of paper PMC10307832

Legend:
Test in all cases: relative viability (nuclei count vs DMSO), 5 days (fraction); higher = more cells survive
Mirin + Trametinib = compound: N=C1NC(=O)/C(=C/c2ccc(O)cc2)S1 [Mirin] + CC(=O)Nc1cccc(-n2c(=O)n(C3CC3)c(=O)c3c(Nc4ccc(I)cc4F)n(C)c(=O)c(C)c32)c1 [Trametinib] (partner 0.02 µM)
How it was run: (§1)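 One day after seeding in 1536-well plates, lung cancer cell lines were dosed by pin tool. Dosing was either single-drug or a fixed anchor-drug dose plus five library-drug doses (not always all listed) in √10 steps. After 5 days, nuclei were stained in one fix-and-stain step and counted on 4× images, and relative viability is the nuclei count of treated wells over that of vehicle wells, given as the median of duplicate plates.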

Mirin + Palbociclib = compound: N=C1NC(=O)/C(=C/c2ccc(O)cc2)S1 [Mirin] + CC(=O)c1c(C)c2cnc(Nc3ccc(N4CCNCC4)cn3)nc2n(C2CCCC2)c1=O [Palbociclib] (partner 0.5 µM)
How it was run: as §1

Mirin + Crizotinib = compound: N=C1NC(=O)/C(=C/c2ccc(O)cc2)S1 [Mirin] + C[C@@H](Oc1cc(-c2cnn(C3CCNCC3)c2)cnc1N)c1c(Cl)ccc(F)c1Cl [Crizotinib] (partner 1 µM)
How it was run: as §1

[1] = compound: CCC1=CN=CN=C1N2CCN(CC2)CC3=NC4=C(N3)C=C(C=C4)C(F)(F)F + CS(=O)(=O)CCNCc1ccc(-c2ccc3ncnc(Nc4ccc(OCc5cccc(F)c5)c(Cl)c4)c3c2)o1 [Lapatinib] (partner 2 µM)
How it was run: as §1

Row | Cell Line | relative viability (Mirin + Trametinib; first compound 0.25 µM) | relative viability (Mirin + Trametinib; first compound 0.7906 µM) | relative viability (Mirin + Trametinib; first compound 2.5 µM) | relative viability (Mirin + Trametinib; first compound 7.906 µM) | relative viability (Mirin + Trametinib; first compound 25 µM) | relative viability (Mirin + Palbociclib; first compound 0.25 µM) | relative viability (Mirin + Palbociclib; first compound 0.7906 µM) | relative viability (Mirin + Palbociclib; first compound 2.5 µM) | relative viability (Mirin + Palbociclib; first compound 7.906 µM) | relative viability (Mirin + Palbociclib; first compound 25 µM) | relative viability (Mirin + Crizotinib; first compound 0.25 µM) | relative viability (Mirin + Crizotinib; first compound 0.7906 µM) | relative viability (Mirin + Crizotinib; first compound 2.5 µM) | relative viability (Mirin + Crizotinib; first compound 7.906 µM) | relative viability (Mirin + Crizotinib; first compound 25 µM) | relative viability ([1]; first compound 0.04 µM) | relative viability ([1]; first compound 0.1265 µM) | relative viability ([1]; first compound 0.4 µM) | relative viability ([1]; first compound 1.265 µM) | relative viability ([1]; first compound 4 µM)
1 | NCI-H3122 | 0.221 | 0.218 | 0.25 | 0.176 | 0.221 | 0.192 | 0.197 | 0.199 | 0.166 | 0.165 | 0.247 | 0.256 | 0.266 | 0.229 | 0.247 | 1.11 | 0.992 | 1 | 1.03 | 0.961
2 | NCI-H2023 | 0.716 | 0.558 | 0.668 | 0.56 | 0.597 | 0.386 | 0.368 | 0.409 | 0.349 | 0.315 | 0.658 | 0.665 | 0.585 | 0.692 | 0.567 | 0.716 | 0.765 | 0.749 | 0.527 | 0.763
3 | PC-14 | 0.788 | 0.893 | 0.725 | 0.725 | 0.776 | 0.528 | 0.558 | 0.508 | 0.512 | 0.522 | 0.873 | 0.893 | 0.887 | 0.945 | 1.07 | 0.34 | 0.264 | 0.304 | 0.246 | 0.329
4 | NCI-H727 | 0.443 | 0.348 | 0.41 | 0.341 | 0.34 | 0.707 | 0.782 | 0.594 | 0.615 | 0.636 | 1.1 | 0.98 | 0.799 | 1.04 | 0.659 | 0.82 | 0.799 | 0.802 |  | 0.741
